Data taken from patent US20080045451A1, “Novel thymidylate synthase mutants” (priority 2000, published 2008).

Tests used:
[1] = Ho et al., 2001; cited from earlier work
[2] = system: primary human gingival fibroblasts; assay: Cytotoxicity of 5-FU in primary human gingival fibroblasts with or without PTD-4-TSD254E fusion protein (Hoechst 33342); type: cell-based; conditions: 10 mM 5-FU, 24 h, without PTD-4-TSD254E, FIG. 7
Description: After completion of the 24-hour treatment of the cells in the control- or test assaysas described above, the medium is removed from the 96-well-plates and substituted by 200 μL/well DMEM medium with 10% fetal calve serum and 10 μg/mL of the DNA-binding fluorescent dye H33342 (Engelmann et al., 2001). The plates are kept at 37° C. for 30 minutes and are then washed twice with each 100 μL/well phosphaste-buffered sodium chloride solution (PBS, “phosphate buffered saline”). Subsequently, 100 μL well PBS is added and the fluorescence is quantified at an […]. The intensity of the fluorescence signal is a measure for the number of viable cells. The fluorescence background signal (dye incubation without cells) is subtracted from the raw data of the fluorescence readings and the calculation of the %-share of viable cells is made related to the fluorescence reading of cells, which were not treated with 5-FU. The fluorescence intensity of these samples is set as 100%. The dosage of 5-FU that kills 50% of the cells (ED50), is determined using the same method. […] The ED50-values were calculated using the nonlinear regression. This method to determine the ED50 has been already described (Engelmann et al., 2001). […]

3T3 fibroblasts = assay: Cytotoxicity of 5-FU in 3T3 fibroblasts with or without PTD-4-TSD254E fusion protein (Hoechst 33342); type: cell-based; conditions: 24 h
Description: 3T3 fibroblasts cells (available by the American Type […] Collection (ATCC, Rockville, Md., USA) were seeded with a cell density of 1×10^4 cells per well into 96-well-cell culture plates. DMEM medium with 10% fetal calve serum is used as cell culture medium, and cells are cultured in a CO2-incubator at 37° C. and 5% CO2. The cell culture medium is aspirated after 24 hours and substituted by 200 μL/well of the test assay and cells are incubated for another 24 hours. Subsequently the portion of viable cells was determined as described below. The test assays are composed as follows:
Controls without 5-FU and without PTD-4-TSD2S4E-fusion protein: 200 μL/well of DMEM with 10%.fetal calve serum […]
After completion of the 24-hour treatment of the cells in the control- or test assaysas described above, the medium is removed from the 96-well-plates and substituted by 200 μL/well DMEM medium with 10% fetal calve serum and 10 μg/mL of the DNA-binding fluorescent dye H33342 (Engelmann et al., 2001). […] Subsequently, 100 μL well PBS is added and the fluorescence is quantified at an […]. The intensity of the fluorescence signal is a measure for the number of viable cells. […] The fluorescence intensity of these samples is set as 100%. […] The ED50-values were calculated using the nonlinear regression. […]

Molecule	transduction activity in comparison to the original TAT sequence [1] [fold]	survival of cells [2] [%]	survival of cells (3T3 fibroblasts; 2.5 μM 5-FU, absence of PTD-4-TSD254E, FIG. 6) [%]	EC50 (3T3 fibroblasts; 3T3-fibroblast cell line, read-out: ED50 (dosage of 5-FU that kills 50% of the cells)) [nM]
PTD-4: optimized TAT sequence YARAAARQARA (SEQ ID NO: 6), protein transduction domain 4 (synthetic TAT sequence optimized by random mutagenisis)	33	–	–	–
O=c1[nH]cc(F)c(=O)[nH]1 [Mutant 5-FU, 5-fluorouracil]	–	70	50	2500
